Here are results for 18 compounds from patent US20230092890A1, “1, 3, 4-Oxadiazole derivative compounds as histone deacetylase 6 inhibitor, and the pharmaceutical composition comprising the same” (Chong Kun Dang Pharmaceutical Corp., priority 2019, published 2023).

In one assay the target is T1, HDAC6 human recombinant (Homo sapiens, UniProt Q9UBN7).
T1 construct: purchased Calbiochem 382180
T1 sequence (Q9UBN7 1-1215): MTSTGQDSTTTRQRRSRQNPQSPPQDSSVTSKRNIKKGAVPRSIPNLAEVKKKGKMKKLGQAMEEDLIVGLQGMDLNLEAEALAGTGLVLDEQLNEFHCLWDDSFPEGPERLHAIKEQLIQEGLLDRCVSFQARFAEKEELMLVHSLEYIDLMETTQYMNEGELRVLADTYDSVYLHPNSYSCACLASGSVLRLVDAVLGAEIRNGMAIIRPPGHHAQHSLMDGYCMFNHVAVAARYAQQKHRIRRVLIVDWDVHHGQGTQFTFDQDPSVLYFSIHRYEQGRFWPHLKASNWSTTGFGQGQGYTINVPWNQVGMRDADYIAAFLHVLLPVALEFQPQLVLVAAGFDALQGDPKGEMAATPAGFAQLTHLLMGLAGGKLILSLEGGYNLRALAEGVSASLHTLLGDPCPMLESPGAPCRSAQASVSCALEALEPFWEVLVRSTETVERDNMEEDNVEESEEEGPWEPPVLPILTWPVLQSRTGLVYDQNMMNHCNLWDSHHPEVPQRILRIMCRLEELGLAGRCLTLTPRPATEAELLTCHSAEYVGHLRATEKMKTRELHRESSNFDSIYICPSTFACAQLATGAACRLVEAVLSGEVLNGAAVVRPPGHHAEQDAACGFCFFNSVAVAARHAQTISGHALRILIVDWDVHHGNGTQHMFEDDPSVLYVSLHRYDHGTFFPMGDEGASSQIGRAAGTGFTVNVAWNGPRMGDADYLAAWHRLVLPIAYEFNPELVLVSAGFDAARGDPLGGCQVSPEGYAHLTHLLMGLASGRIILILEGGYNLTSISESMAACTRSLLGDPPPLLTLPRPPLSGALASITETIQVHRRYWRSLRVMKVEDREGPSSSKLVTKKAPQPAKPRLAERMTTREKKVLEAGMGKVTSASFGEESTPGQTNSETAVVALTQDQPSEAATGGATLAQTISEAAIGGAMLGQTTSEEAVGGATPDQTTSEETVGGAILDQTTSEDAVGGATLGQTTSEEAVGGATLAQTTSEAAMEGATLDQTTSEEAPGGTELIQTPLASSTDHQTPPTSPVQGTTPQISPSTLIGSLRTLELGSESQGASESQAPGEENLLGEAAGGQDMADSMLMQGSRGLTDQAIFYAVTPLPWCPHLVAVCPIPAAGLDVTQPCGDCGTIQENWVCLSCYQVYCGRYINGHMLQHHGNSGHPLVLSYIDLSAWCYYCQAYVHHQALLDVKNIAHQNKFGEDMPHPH
Briefly: HDAC enzyme activity inhibition (in vitro), HDAC6 assay. It counts as biochemical. The settings on record: samples at 0.1, 1, 10, 100 and 1000 nM; 37° C. 60 minutes; fluorescence Ex 390, Em 460; read-out: HDAC6 IC50. Put shortly:
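Fluorescence (Ex 390, Em 460) read after a 37° C, 60 min enzyme reaction and a further 30 min developer step at 37° C. Uses recombinant human HDAC6; HDAC1 arm dosed at 100, 1000, 10000 nM.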

In a further assay the target is T2, HDAC1 (Homo sapiens, UniProt Q13547).
T2 construct: purchased Enzolifesciences BML-AK511
Briefly: HDAC enzyme activity inhibition (in vitro), HDAC1 Fluorimetric Drug Discovery Assay Kit. It counts as biochemical. As to conditions: samples at 100, 1000 and 10000 nM; 37° C. 60 minutes; fluorescence Ex 390, Em 460; read-out: HDAC1 IC50. Put shortly: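 Each sample reacted with enzyme for 60 min at 37° C before a 30-min developer step at the same temperature. HDAC1 doses spanned 100 to 10000 nM. Fluorescent signal was read at Ex 390/Em 460.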

Some results are limits rather than exact numbers.

T2 sequence (Q13547 whole entry): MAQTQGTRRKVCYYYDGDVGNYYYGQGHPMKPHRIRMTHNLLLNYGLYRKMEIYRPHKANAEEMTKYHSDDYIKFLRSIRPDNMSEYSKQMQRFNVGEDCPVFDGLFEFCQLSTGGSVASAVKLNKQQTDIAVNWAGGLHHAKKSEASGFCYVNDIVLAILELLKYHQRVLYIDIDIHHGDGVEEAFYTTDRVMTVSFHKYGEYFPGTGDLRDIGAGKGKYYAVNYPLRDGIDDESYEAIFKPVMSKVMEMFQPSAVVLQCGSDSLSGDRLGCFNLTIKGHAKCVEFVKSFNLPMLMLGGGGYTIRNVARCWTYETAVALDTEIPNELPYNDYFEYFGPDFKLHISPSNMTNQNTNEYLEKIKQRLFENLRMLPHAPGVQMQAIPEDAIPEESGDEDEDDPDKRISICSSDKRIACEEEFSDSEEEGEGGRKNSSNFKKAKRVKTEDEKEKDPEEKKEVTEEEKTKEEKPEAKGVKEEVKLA

Consider `CS(=O)(=O)N1CCC(n2c(=O)n(Cc3ccc(-c4nnc(C(F)F)o4)cc3)c3cc(F)ccc32)CC1` [Compound 192, 3-(4-(5-(difluoromethyl)-1,3,4-oxadiazole-2-yl)benzyl)-5-fluoro-1-(1-(methylsulfonyl)piperidine-4-yl)-1,3-dihydro-2H-benzo[d]imidazole-2-one], for which the concentration for half-maximal inhibition (IC50) at HDAC6 human recombinant was 79 nM; at HDAC1, over 10000 nM.
In the case of `CS(=O)(=O)N1CCC(n2c(=O)n(Cc3ccc(-c4nnc(C(F)F)o4)cn3)c3cc(F)c(F)cc32)CC1` [Compound 193, 1-((5-(5-(difluoromethyl)-1,3,4-oxadiazole-2-yl)pyridine-2-yl)methyl)-5,6-difluoro-3-(1-(methylsulfonyl)piperidine-4-yl)-1,3-dihydro-2H-benzo[d]imidazole-2-one], the figures for the IC50 on HDAC6 human recombinant and at HDAC1 were 48 nM and over 10000 nM, respectively.
`CS(=O)(=O)N1CCC(n2c(=O)n(Cc3ccc(-c4nnc(C(F)F)o4)cc3)c3cc(F)c(F)cc32)CC1` [Compound 194, 1-(4-(5-(difluoromethyl)-1,3,4-oxadiazole-2-yl)benzyl)-5,6-difluoro-3-(1-(methylsulfonyl)piperidine-4-yl)-1,3-dihydro-2H-benzo[d]imidazole-2-one]: the IC50 at HDAC6 human recombinant is 84 nM; on HDAC1, over 10000 nM.
With `CS(=O)(=O)N1CCC(n2c(=O)n(Cc3ccc(-c4nnc(C(F)F)o4)cn3)c3cc(C(F)(F)F)ccc32)CC1` [Compound 195, 3-((5-(5-(difluoromethyl)-1,3,4-oxadiazole-2-yl)pyridine-2-yl)methyl)-1-(1-(methylsulfonyl)piperidine-4-yl)-5-(trifluoromethyl)-1,3-dihydro-2H-benzo[d]imidazole-2-one], the IC50 at HDAC6 human recombinant is 50 nM; at HDAC1, over 10000 nM.
In the case of `CS(=O)(=O)N1CCC(n2c(=O)n(Cc3ccc(-c4nnc(C(F)F)o4)cc3F)c3cc(C(F)(F)F)ccc32)CC1` [Compound 196, 3-(4-(5-(difluoromethyl)-1,3,4-oxadiazole-2-yl)-2-fluorobenzyl)-1-(1-(methylsulfonyl)piperidine-4-yl)-5-(trifluoromethyl)-1,3-dihydro-2H-benzo[d]imidazole-2-one], the 50% inhibitory concentration (IC50) was 126 nM on HDAC6 human recombinant and over 10000 nM at HDAC1.
With `CC(=O)N1CCC(c2ccc3c(c2)n(C2CCN(C)CC2)c(=O)n3Cc2ccc(-c3nnc(C(F)F)o3)cn2)CC1` [Compound 197, 5-(1-acetylpiperidine-4-yl)-1-((5-(5-(difluoromethyl)-1,3,4-oxadiazole-2-yl)pyridine-2-yl)methyl)-3-(1-methylpiperidine-4-yl)-1,3-dihydro-2H-benzo[d]imidazole-2-one], the IC50 at HDAC6 human recombinant was 235 nM; at HDAC1, over 10000 nM.
In the case of `CN1CCC(n2c(=O)n(Cc3ccc(-c4nnc(C(F)F)o4)cn3)c3ccc(C4CCN(S(C)(=O)=O)CC4)cc32)CC1` [Compound 198, 1-((5-(5-(difluoromethyl)-1,3,4-oxadiazole-2-yl)pyridine-2-yl)methyl)-3-(1-methylpiperidine-4-yl)-5-(1-(methylsulfonyl)piperidine-4-yl)-1,3-dihydro-2H-benzo[d]imidazole-2-one], the IC50 is 195 nM on HDAC6 human recombinant and over 10000 nM at HDAC1.
Regarding `CN1CCC(c2ccc3c(c2)n(C2CCN(C)CC2)c(=O)n3Cc2ccc(-c3nnc(C(F)F)o3)cn2)CC1` [Compound 199, 1-((5-(5-(difluoromethyl)-1,3,4-oxadiazole-2-yl)pyridine-2-yl)methyl)-3,5-bis(1-methylpiperidine-4-yl)-1,3-dihydro-2H-benzo[d]imidazole-2-one], the concentration for half-maximal inhibition (IC50) at HDAC6 human recombinant is 175 nM; on HDAC1 it was over 10000 nM.
With `CS(=O)(=O)N1CCC(n2c(=O)n(Cc3ccc(-c4nnc(C(F)F)o4)cn3)c3ccc(Cl)cc32)CC1` [Compound 200, 5-chloro-1-((5-(5-(difluoromethyl)-1,3,4-oxadiazole-2-yl)pyridine-2-yl)methyl)-3-(1-(methylsulfonyl)piperidine-4-yl)-1,3-dihydro-2H-benzo[d]imidazole-2-one], the IC50 on HDAC6 human recombinant is 40 nM; at HDAC1 it was over 10000 nM.
For `CS(=O)(=O)N1CCC(n2c(=O)n(Cc3ccc(-c4nnc(C(F)F)o4)cc3F)c3ccc(Cl)cc32)CC1` [Compound 201, 5-chloro-1-(4-(5-(difluoromethyl)-1,3,4-oxadiazole-2-yl)-2-fluorobenzyl)-3-(1-(methylsulfonyl)piperidine-4-yl)-1,3-dihydro-2H-benzo[d]imidazole-2-one], the IC50 is 70 nM at HDAC6 human recombinant and over 10000 nM at HDAC1.
`CS(=O)(=O)N1CCC(n2c(=O)n(Cc3ccc(-c4nnc(C(F)F)o4)cc3)c3ccc(Cl)cc32)CC1` [Compound 202, 5-chloro-1-(4-(5-(difluoromethyl)-1,3,4-oxadiazole-2-yl)benzyl)-3-(1-(methylsulfonyl)piperidine-4-yl)-1,3-dihydro-2H-benzo[d]imidazole-2-one]: the IC50 on HDAC6 human recombinant was 139 nM; at HDAC1, over 10000 nM.
On to `CS(=O)(=O)N1CCC(n2c(=O)n(Cc3ccc(-c4nnc(C(F)F)o4)cn3)c3ncccc32)CC1` [Compound 203, 3-((5-(5-(difluoromethyl)-1,3,4-oxadiazole-2-yl)pyridine-2-yl)methyl)-1-(1-(methylsulfonyl)piperidine-4-yl)-1,3-dihydro-2H-imidazo[4,5-b]pyridine-2-one], for which the IC50 was 105 nM on HDAC6 human recombinant and over 10000 nM at HDAC1.
With `CS(=O)(=O)N1CCC(n2c(=O)n(Cc3ccc(-c4nnc(C(F)F)o4)cc3F)c3ncccc32)CC1` [Compound 204, 3-(4-(5-(difluoromethyl)-1,3,4-oxadiazole-2-yl)-2-fluorobenzyl)-1-(1-(methylsulfonyl)piperidine-4-yl)-1,3-dihydro-2H-imidazo[4,5-b]pyridine-2-one], the IC50 at HDAC6 human recombinant is 140 nM; on HDAC1, over 10000 nM.
For `CS(=O)(=O)N1CCC(n2c(=O)n(Cc3ccc(-c4nnc(C(F)F)o4)cc3)c3ncccc32)CC1` [Compound 205, 3-(4-(5-(difluoromethyl)-1,3,4-oxadiazole-2-yl)benzyl)-1-(1-(methylsulfonyl)piperidine-4-yl)-1,3-dihydro-2H-imidazo[4,5-b]pyridine-2-one], the IC50 on HDAC6 human recombinant was 739 nM; on HDAC1, over 10000 nM.
Consider `CS(=O)(=O)N1CCC(n2c(=O)n(Cc3ccc(-c4nnc(C(F)F)o4)cn3)c3ccccc32)CC1` [Compound 206, 1-((5-(5-(difluoromethyl)-1,3,4-oxadiazole-2-yl)pyridine-2-yl)methyl)-3-(1-(methylsulfonyl)piperidine-4-yl)-1,3-dihydro-2H-benzo[d]imidazole-2-one], for which the IC50 was 58 nM on HDAC6 human recombinant and over 10000 nM on HDAC1.
`CC(C)(C)C(=O)Nc1ccc2c(c1)n(Cc1ccccc1)c(=O)n2Cc1ccc(-c2nnc(C(F)F)o2)cn1` [Compound 207, N-(3-benzyl-1-((5-(5-(difluoromethyl)-1,3,4-oxadiazole-2-yl)pyridine-2-yl)methyl)-2-oxo-2,3-dihydro-1H-benzo[d]imidazole-5-yl)pivalamide]: the values for the IC50 on HDAC6 human recombinant and on HDAC1 were 173 nM and over 10000 nM, respectively.
Take `Cn1c(=O)n(Cc2ccc(-c3nnc(C(F)F)o3)cn2)c2ccc(-c3cccnc3)cc21` [Compound 208, 1-((5-(5-(difluoromethyl)-1,3,4-oxadiazole-2-yl)pyridine-2-yl)methyl)-3-methyl-5-(pyridine-3-yl)-1,3-dihydro-2H-benzo[d]imidazole-2-one]: the IC50 is 13 nM at HDAC6 human recombinant and over 10000 nM at HDAC1.
As for `Cn1c(=O)n(Cc2ccc(-c3nnc(C(F)F)o3)cn2)c2ccc(-c3ccncc3)cc21` [Compound 209, 1-((5-(5-(difluoromethyl)-1,3,4-oxadiazole-2-yl)pyridine-2-yl)methyl)-3-methyl-5-(pyridine-4-yl)-1,3-dihydro-2H-benzo[d]imidazole-2-one], the IC50 is 17 nM on HDAC6 human recombinant and over 10000 nM at HDAC1.
